Data published in article PMC10303271, “Synthesis and Receptor Binding Studies of α5 GABAAR Selective Novel Imidazodiazepines Targeted for Psychiatric and Cognitive Disorders” (Molecules, 2023).

Columns and labels:
GABAA = assay: PDSP primary binding GABAA; conditions: primary binding, 10,000 nM; last figure of the line = mean of the 4 before it; some tables list it twice
Procedure: (§1) To determine if any off-target receptor-binding effects are present, all the novel ligands were sent to the National Institute of Mental Health (NIMH), Psychoactive Drug Screening Program (PDSP). The ligands were screened over a panel of 47 receptors, ion channels, and transporters to determine any other possible interactions with […]. The hERG-binding was also determined. […] No binding of the test compounds to calcium channels was observed. […] It is necessary to screen the compounds for hERG-binding during the early process of drug discovery. The unintentional binding of many drugs to hERG can cause blockade of hERG K+ channels in the heart, which can cause many side effects including cardiac arrhythmias and sudden death. […] All of the α5 imidazodiazepines were tested for hERG-binding.
(§2) The NIMH PDSP assay protocol book [https://kidbdev.med.unc.edu/databases/PDSP%20Protocols%20II%202013-03-28.pdf accessed on 23 April 2023]. describes the protocols for primary and secondary radio-ligand binding assays. These assays were carried out in a final volume of 125 µL per well in the appropriate binding buffer.
(§3) The binding of a ligand to a receptor, ion channel, or transporter was determined in the […] of 10 µM of the appropriate reference compound. […] Plates were incubated in the dark for 90 min at rt, and the reactions were stopped by vacuum filtration onto 0.3% polyethyleneimine (PEI) soaked 96-well filter mats using a 96-well Filtermateharvester. This was followed by three washes with cold PBS buffer. Radioactivity was then counted on a Microbeta counter. Nonlinear regression was used to analyze the data with N = 6 replicates.

DAT = molecular target: T1, DAT (Homo sapiens, UniProt Q01959); assay: PDSP primary binding DAT; conditions: 1.5 h, primary binding, 10,000 nM; last figure of the line = mean of the 4 before it; some tables list DAT twice; read-out: DAT, PDSP raw data, mean
T1 construct: purchased NIMH Psychoactive Drug Screening Program (PDSP)
Procedure: as §1, §2, §3

SERT = molecular target: T2, SERT (Homo sapiens, UniProt P31645); assay: PDSP primary binding SERT; conditions: primary binding, 10,000 nM; last figure of the line = mean of the 4 before it; some tables list SERT twice; read-out: SERT, PDSP raw data, mean
T2 construct: purchased NIMH Psychoactive Drug Screening Program (PDSP)
Procedure: as §1, §2, §3

hERG K+ channel = molecular target: T3, hERG K+ channel (Homo sapiens, UniProt Q12809); assay: PDSP radioligand binding at hERG; conditions: human; at 10,000 nM; N = 5; read-out: Binding Affinity at hERG % Inhibition (Primary Binding)
T3 construct: purchased NIMH Psychoactive Drug Screening Program (PDSP)
Procedure: as §1, §2, §3

Alpha2B = molecular target: T4, Alpha2B (Homo sapiens, UniProt P18089); assay: PDSP primary binding Alpha2B; conditions: 1.5 h; primary binding, 10,000 nM; last figure of the line = mean of the 4 before it; read-out: Alpha2B, PDSP raw data, mean
T4 construct: purchased NIMH Psychoactive Drug Screening Program (PDSP)
T4 sequence (P18089 1-450): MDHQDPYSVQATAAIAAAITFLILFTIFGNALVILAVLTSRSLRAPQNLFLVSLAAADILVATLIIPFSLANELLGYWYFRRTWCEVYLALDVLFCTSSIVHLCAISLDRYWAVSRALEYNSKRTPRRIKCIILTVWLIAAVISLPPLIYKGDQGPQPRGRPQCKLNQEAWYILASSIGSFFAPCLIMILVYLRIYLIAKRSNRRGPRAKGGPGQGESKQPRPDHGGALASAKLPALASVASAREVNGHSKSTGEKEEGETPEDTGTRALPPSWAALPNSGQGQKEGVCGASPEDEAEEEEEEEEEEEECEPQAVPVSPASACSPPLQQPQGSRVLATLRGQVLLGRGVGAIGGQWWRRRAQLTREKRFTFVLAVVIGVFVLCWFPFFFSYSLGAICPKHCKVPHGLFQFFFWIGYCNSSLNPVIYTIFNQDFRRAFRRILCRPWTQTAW
Procedure: as §1, §2, §3

NOP = molecular target: T5, NOP (Homo sapiens, UniProt P41146); assay: PDSP primary binding NOP; conditions: primary binding, 10,000 nM; last figure of the line = mean of the 4 before it
T5 construct: purchased NIMH Psychoactive Drug Screening Program (PDSP)
Procedure: as §1, §2, §3

OT = molecular target: T6, OT (Homo sapiens, UniProt P30559); assay: PDSP primary binding OT (Oxytocin); conditions: primary binding, 10,000 nM; last figure of the line = mean of the 4 before it; some tables list it twice; read-out: OT (also Oxytocin), PDSP raw data, mean
T6 construct: purchased NIMH Psychoactive Drug Screening Program (PDSP)
T6 sequence (P30559 1-389): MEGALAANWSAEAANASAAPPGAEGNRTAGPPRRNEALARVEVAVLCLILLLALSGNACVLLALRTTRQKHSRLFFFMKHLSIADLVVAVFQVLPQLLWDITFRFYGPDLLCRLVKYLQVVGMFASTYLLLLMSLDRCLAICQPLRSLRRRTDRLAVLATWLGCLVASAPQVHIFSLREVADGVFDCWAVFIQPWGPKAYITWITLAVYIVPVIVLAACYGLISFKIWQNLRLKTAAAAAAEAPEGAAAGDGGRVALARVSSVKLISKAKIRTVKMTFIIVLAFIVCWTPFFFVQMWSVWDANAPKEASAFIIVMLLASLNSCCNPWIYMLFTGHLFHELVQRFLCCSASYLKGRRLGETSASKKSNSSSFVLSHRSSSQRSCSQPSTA
Procedure: as §1, §2, §3

AT2 = molecular target: T7, AT2 (Homo sapiens, UniProt P50052); assay: PDSP primary binding AT2; conditions: primary binding, 10,000 nM; last figure of the line = mean of the 4 before it
T7 construct: purchased NIMH Psychoactive Drug Screening Program (PDSP)
Procedure: as §1
The NIMH PDSP assay protocol book [https://kidbdev.med.unc.edu/databases/PDSP%20Protocols%20II%202013-03-28.pdf accessed on 23 April 2023]. describes the protocols for primary and secondary radio-ligand binding assays. […]
The binding of a ligand to a receptor, ion channel, or transporter was determined in the […] of 10 µM of the appropriate reference compound. Nonspecific binding was also determined in the absence and presence of 10 µM of the appropriate reference compound. […] Radioactivity was then counted on a Microbeta counter. […]

T2 sequence (P31645 whole entry): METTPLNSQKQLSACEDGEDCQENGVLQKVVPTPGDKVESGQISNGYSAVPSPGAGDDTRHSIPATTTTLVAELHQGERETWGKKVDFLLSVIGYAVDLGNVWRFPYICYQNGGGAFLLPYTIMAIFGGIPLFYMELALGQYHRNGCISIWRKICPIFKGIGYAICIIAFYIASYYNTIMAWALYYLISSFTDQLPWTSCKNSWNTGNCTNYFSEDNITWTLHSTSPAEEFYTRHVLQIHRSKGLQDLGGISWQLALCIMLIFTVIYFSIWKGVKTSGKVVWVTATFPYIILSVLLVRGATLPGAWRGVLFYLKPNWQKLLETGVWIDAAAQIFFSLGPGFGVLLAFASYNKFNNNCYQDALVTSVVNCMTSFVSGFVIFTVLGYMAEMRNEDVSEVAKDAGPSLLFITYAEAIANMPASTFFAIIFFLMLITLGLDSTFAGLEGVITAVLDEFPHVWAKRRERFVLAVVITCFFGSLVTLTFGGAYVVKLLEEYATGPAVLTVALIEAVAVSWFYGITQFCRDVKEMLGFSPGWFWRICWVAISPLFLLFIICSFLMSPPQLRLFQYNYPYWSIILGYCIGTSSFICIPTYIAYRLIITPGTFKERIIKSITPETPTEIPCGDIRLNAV
T5 sequence (P41146 whole entry): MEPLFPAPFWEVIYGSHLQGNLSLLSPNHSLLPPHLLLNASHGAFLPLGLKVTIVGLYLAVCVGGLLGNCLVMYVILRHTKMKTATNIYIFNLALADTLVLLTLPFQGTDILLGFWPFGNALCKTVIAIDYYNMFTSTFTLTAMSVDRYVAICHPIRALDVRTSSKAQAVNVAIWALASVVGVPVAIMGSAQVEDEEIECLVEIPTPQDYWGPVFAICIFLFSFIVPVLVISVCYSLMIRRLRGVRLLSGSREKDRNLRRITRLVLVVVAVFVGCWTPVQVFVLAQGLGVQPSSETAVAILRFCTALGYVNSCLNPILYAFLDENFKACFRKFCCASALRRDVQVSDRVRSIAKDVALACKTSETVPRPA
T1 sequence (Q01959 whole entry): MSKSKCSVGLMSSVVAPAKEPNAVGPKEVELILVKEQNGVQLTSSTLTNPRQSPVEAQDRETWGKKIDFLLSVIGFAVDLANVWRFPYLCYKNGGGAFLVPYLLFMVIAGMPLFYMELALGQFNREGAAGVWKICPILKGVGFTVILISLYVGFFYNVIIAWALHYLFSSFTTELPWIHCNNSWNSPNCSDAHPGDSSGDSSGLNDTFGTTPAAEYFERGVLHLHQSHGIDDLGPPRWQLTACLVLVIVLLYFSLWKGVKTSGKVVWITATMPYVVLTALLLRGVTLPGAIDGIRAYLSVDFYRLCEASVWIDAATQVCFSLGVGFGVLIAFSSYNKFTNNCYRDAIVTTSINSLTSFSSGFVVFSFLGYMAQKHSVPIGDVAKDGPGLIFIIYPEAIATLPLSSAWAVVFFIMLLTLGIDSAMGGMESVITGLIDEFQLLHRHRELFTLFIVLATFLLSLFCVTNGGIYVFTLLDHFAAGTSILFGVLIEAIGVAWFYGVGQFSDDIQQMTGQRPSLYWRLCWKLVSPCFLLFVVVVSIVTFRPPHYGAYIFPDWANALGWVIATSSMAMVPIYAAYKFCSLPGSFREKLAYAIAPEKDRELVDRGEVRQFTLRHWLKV
T3 sequence (Q12809 whole entry): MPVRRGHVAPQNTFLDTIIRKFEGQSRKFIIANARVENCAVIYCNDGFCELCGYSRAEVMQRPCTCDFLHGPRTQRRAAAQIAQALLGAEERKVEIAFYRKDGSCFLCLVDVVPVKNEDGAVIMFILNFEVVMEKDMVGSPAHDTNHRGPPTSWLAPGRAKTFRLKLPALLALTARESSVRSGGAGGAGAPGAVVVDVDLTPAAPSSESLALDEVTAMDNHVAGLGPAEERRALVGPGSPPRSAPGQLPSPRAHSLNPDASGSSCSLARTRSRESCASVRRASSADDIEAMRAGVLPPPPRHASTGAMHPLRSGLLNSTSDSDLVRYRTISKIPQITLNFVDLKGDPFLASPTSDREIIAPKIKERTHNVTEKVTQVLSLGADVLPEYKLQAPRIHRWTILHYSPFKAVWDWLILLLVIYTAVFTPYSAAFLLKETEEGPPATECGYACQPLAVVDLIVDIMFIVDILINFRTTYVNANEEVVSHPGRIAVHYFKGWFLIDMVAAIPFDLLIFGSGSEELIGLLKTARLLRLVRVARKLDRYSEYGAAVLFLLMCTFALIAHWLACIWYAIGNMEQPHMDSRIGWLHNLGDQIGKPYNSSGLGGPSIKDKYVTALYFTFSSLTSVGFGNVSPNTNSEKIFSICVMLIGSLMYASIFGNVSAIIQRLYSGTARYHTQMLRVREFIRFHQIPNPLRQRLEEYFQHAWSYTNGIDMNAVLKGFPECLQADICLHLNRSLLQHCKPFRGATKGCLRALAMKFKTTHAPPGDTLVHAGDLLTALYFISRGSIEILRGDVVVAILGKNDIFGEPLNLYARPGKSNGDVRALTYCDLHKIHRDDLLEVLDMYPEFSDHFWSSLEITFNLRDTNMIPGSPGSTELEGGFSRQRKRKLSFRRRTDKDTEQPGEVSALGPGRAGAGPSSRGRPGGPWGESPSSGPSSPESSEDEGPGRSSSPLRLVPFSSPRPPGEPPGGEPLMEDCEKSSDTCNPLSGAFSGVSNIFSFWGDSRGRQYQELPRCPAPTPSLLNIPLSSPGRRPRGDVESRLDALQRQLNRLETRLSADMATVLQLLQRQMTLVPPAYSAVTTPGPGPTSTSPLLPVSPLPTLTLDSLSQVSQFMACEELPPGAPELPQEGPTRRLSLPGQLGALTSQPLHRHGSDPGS
T7 sequence (P50052 whole entry): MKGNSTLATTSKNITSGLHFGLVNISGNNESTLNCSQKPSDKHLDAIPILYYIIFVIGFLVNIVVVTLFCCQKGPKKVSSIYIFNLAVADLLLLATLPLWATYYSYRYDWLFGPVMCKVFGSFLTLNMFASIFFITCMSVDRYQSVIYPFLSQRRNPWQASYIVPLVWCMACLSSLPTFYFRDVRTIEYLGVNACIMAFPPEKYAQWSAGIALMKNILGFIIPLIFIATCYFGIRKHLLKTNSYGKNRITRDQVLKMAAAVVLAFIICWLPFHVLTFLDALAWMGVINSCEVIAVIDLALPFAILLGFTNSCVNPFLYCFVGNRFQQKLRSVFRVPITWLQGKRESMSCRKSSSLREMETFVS

Structure (SMILES)	GABAA, PDSP raw data, mean (GABAA) [%]	inhibition at 10 µM (DAT) [%]	inhibition at 10 µM (SERT) [%]	inhibition at 90 min, 10000 nM (hERG K+ channel) [%]	inhibition at 10 µM (Alpha2B) [%]	NOP, PDSP raw data, mean (NOP) [%]	inhibition at 10 µM (OT) [%]	AT2, PDSP raw data, mean (AT2) [%]
C#Cc1ccc2c(c1)C(c1ccccc1F)=N[C@H](C)c1c(C(=S)N(C)C)ncn1-2 [Compound 33, (R)-8-Ethynyl-6-(2′-fluorophenyl)-N,N,4-trimethyl-4H-benzo[f]imidazo[1,5-a][1,4]diazepine-3-carbothioamide]	-4.01	29.7	-9.27	-4.4 ± 4.52	68.9			
C#Cc1ccc2c(c1)C(c1ccccc1Cl)=N[C@H](C)c1c(C(=O)NC)ncn1-2 [Compound 21, (R)-6-(2′-Chlorophenyl)-8-ethynyl-N,4-dimethyl-4H-benzo[f]imidazo[1,5-a][1,4]diazepine-3-carboxamide]	12.76		9.24	-5.73 ± 11.1	-2.45	-0.1	-0.63	
CCc1noc(-c2ncn3c2[C@@H](C)N=C(c2ccccc2F)c2cc(C4CC4)ccc2-3)n1 [Compound 46, (R)-5-(8-Cyclopropyl-6-(2′-fluorophenyl)-4-methyl-4H-benzo[f]imidazo[1,5-a][1,4]diazepin-3-yl)-3-ethyl-1,2,4-oxadiazole]	19.52	22	-3.28	4.34 ± 3.92	44.2	7.5	11.4	
CC(C)c1noc(-c2ncn3c2[C@@H](C)N=C(c2ccccc2F)c2cc(Cl)ccc2-3)n1 [Compound 37, (R)-5-(8-Chloro-6-(2′-fluorophenyl)-4-methyl-4H-benzo[f]imidazo[1,5-a][1,4]diazepin-3-yl)-3-isopropyl-1,2,4-oxadiazole]		37.5		4.21 ± 10.8	18.5	-10.12	10.5	12.03
CCc1noc(-c2ncn3c2[C@@H](C)N=C(c2ccccc2F)c2cc(Cl)ccc2-3)n1 [Compound 36, (R)-5-(8-Chloro-6-(2′-fluorophenyl)-4-methyl-4H-benzo[f]imidazo[1,5-a][1,4]diazepin-3-yl)-3-ethyl-1,2,4-oxadiazole]	13.12	11	3.09		16.6		14.7	
C[C@H]1N=C(c2ccccc2F)c2cc(-c3ccccc3)ccc2-n2cnc(C(=O)N(C)C)c21 [Compound 5, (R)-6-(2′-Fluorophenyl)-N,N,4-trimethyl-8-phenyl-4H-benzo[f]imidazo[1,5-a][1,4]diazepine-3-carboxamide]	-4.01	29.7	-9.27	-0.48 ± 4.52	68.9			
C#Cc1ccc2c(c1)C(c1ccccn1)=N[C@@H](C)c1c(C(=O)N(C)C)ncn1-2 [Compound 31, (S)-8-Ethynyl-N,N,4-trimethyl-6-(pyridin-2′-yl)-4H-benzo[f]imidazo[1,5-a][1,4]diazepine-3-carboxamide]	9.39	15.5	4.04	0.95 ± 2.21	-0.93	-14.49	23.7	
C#Cc1ccc2c(c1)C(c1ccccn1)=N[C@@H](C)c1c(C(=O)NC)ncn1-2 [Compound 23, (S)-8-Ethynyl-N,4-dimethyl-6-(pyridin-2′-yl)-4H-benzo[f]imidazo[1,5-a][1,4]diazepine-3-carboxamide]	23.24		-7.1	-4.24 ± 3.47	4.64		47.4	
C#Cc1ccc2c(c1)C(c1ccccc1Cl)=N[C@H](C)c1c(C(=O)N(C)CC)ncn1-2 [Compound 29]	25.77		6.07	-1.55 ± 10.1	7.23		41.8	
CCc1noc(-c2ncn3c2CN=C(c2ccccc2F)c2cc(C4CC4)ccc2-3)n1 [Compound 44, 5-(8-Cyclopropyl-6-(2′-fluorophenyl)-4H-benzo[f]imidazo[1,5-a][1,4]diazepin-3-yl)-3-ethyl-1,2,4-oxadiazole]	11.92	37.4	7.2	33.2 ± 12.6	36.6		15.4	
CCc1noc(-c2ncn3c2[C@@H](C)N=C(c2ccccc2F)c2cc(-c4ccccc4)ccc2-3)n1 [Compound 35, (R)-3-Ethyl-5-(6-(2′-fluorophenyl)-4-methyl-8-phenyl-4H-benzo[f]imidazo[1,5-a][1,4]diazepin-3-yl)-1,2,4-oxadiazole]	16.02	49.4	17.2	37.3 ± 5.97	45.7		6.27	
C[C@H]1N=C(c2ccccc2F)c2cc(Cl)ccc2-n2cnc(-c3nc(C4CC4)no3)c21 [Compound 38, (R)-5-(8-Chloro-6-(2′-fluorophenyl)-4-methyl-4H-benzo[f]imidazo[1,5-a][1,4]diazepin-3-yl)-3-cyclopropyl-1,2,4-oxadiazole]		40	13.1	1.86 ± 25.6	17.6	-17		24.14
